# Tests used:
# [1] = compound: CN(CC[C@H](CSC1=CC=CC=C1)NC2=C(C=C(C=C2)S(=O)(=O)NC(=O)C3=CC=C(C=C3)N4CCC(CC4)[C@H](C5=CC=CC=C5C6=CC=C(C=C6)Cl)O)S(=O)(=O)C(F)(F)F)CCO [AZD4320]; settings: max 1 µM
# Summary of the method: (§1)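 Plates with 1536 wells received cancer cell lines in 7.5 μl of DMEM/F12 or RPMI containing 10% FBS. After 24 hours at 37°C and 5% CO2, cells were dosed for 72 hours with final DMSO typically 0.2%, and viability was read by CellTiter-Glo 2.0 luminescence scaled between blank-well and DMSO-well means. The single-agent IC50 was taken from a logistic fit of the dose responses made with a non-linear mixed effects model, that logistic curve having two parameters.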
# [2] = compound: C[C@@H](Oc1cc(-c2cnn(C3CCNCC3)c2)cnc1N)c1c(Cl)ccc(F)c1Cl [Crizotinib]; settings: max 10 µM
# Summary of the method: as §1
# [3] = compound: Cn1cnc2c(F)c(Nc3ccc(Br)cc3Cl)c(C(=O)NOCCO)cc21 [Selumetinib]; settings: max 10 µM
# Summary of the method: as §1
# [4] = compound: Cc1nc(-c2cn3c(n2)-c2ccc(-c4cnn(C(C)(C)C(N)=O)c4)cc2OCC3)n(C(C)C)n1 [Taselisib]; settings: max 10 µM
# Summary of the method: as §1
# [5] = compound: C[C@@H](Nc1cc(F)cc(F)c1)c1cc(C(=O)N(C)C)cc2c(=O)cc(N3CCOCC3)oc12 [AZD8186]; settings: max 3 µM
# Summary of the method: as §1
# [6] = compound: CS(=O)(=O)CCNCc1ccc(-c2ccc3ncnc(Nc4ccc(OCc5cccc(F)c5)c(Cl)c4)c3c2)o1 [Lapatinib]; settings: max 10 µM
# Summary of the method: as §1
# [7] = compound: C[C@@H](c1ccc2nccn2c1)n1nnc2ncc(-c3cnn(C)c3)nc21 [Savolitinib]; settings: max 1 µM
# Summary of the method: as §1
# [8] = compound: CC(=O)Nc1cccc(-n2c(=O)n(C3CC3)c(=O)c3c(Nc4ccc(I)cc4F)n(C)c(=O)c(C)c32)c1 [Trametinib]; settings: max 1 µM
# Summary of the method: as §1
# [9] = compound: CCc1c2c(nc3ccc(O)cc13)-c1cc3c(c(=O)n1C2)COC(=O)[C@]3(O)CC [SN-38]; settings: max 0.3 µM
# Summary of the method: as §1
# [10] = compound: CCN(CCO)CCCOc1ccc2c(Nc3cc(CC(=O)Nc4cccc(F)c4)[nH]n3)ncnc2c1 [AZD2811]; settings: max 1 µM
# Summary of the method: as §1
# [11] = compound: CN(C)CCCOc1ccc(-c2ccc3ncc4c(c3c2)n(C2CCOCC2)c(=O)n4C)cn1 [AZD0156]; settings: max 3 µM
# Summary of the method: as §1
# [12] = compound: COc1cc2ncnc(Nc3ccc(F)c(Cl)c3)c2cc1OCCCN1CCOCC1 [Gefitinib]; settings: max 10 µM
# Summary of the method: as §1
# [13] = compound: CC1=C(C(=CC=C1)Cl)NC(=O)C2=CN=C(S2)NC3=CC(=NC(=N3)C)N4CCN(CC4)CCO [Dasatinib]; settings: max 2 µM
# Summary of the method: as §1
# [14] = compound: CC1=CN2[C@@H](C1)C=NC3=CC(=C(C=C3C2=O)OC)OCCCCCOC4=C(C=C5C(=C4)N=C[C@@H]6CC(=CN6C5=O)C)OC [SG3199]; settings: max 0.001 µM
# Summary of the method: as §1
# [15] = compound: C[C@@H]1COCCN1C2=NC(=NC(=C2)C3(CC3)[S@](=N)(=O)C)C4=C5C=CNC5=NC=C4 [AZD6738]; settings: max 10 µM
# Summary of the method: as §1
# [16] = compound: C=CCn1c(=O)c2cnc(Nc3ccc(N4CCN(C)CC4)cc3)nc2n1-c1cccc(C(C)(C)O)n1 [AZD1775]; settings: max 3 µM
# Summary of the method: as §1
# [17] = compound: Cc1c2c(nn1C)CSCc1cc(n(C)n1)CSc1cc(c3ccccc3c1)OCCCc1c(C(=O)O)n(C)c3c-2c(Cl)ccc13 [AZD5991]; settings: max 1 µM
# Summary of the method: as §1
# [18] = compound: CC(=O)c1c(C)c2cnc(Nc3ccc(N4CCNCC4)cn3)nc2n(C2CCCC2)c1=O [Palbociclib]; settings: max 10 µM
# Summary of the method: as §1
# [19] = compound: COc1cccc2c1C(=O)c1c(O)c3c(c(O)c1C2=O)C[C@@](O)(C(=O)CO)C[C@@H]3O[C@H]1C[C@H](N)[C@H](O)[C@H](C)O1 [Doxorubicin]; settings: max 1 µM
# Summary of the method: as §1
# [20] = compound: CC1(C)CCC(CN2CCN(c3ccc(C(=O)NS(=O)(=O)c4ccc(NCC5CCOCC5)c([N+](=O)[O-])c4)c(Oc4cnc5[nH]ccc5c4)c3)CC2)=C(c2ccc(Cl)cc2)C1 [Venetoclax]; settings: max 1 µM
# Summary of the method: as §1
# [21] = compound: COc1cccc(OCCCN)c1-c1cc(Nc2cnc(C#N)cn2)n[nH]1 [Prexasertib]; settings: max 1 µM
# Summary of the method: as §1
# [22] = compound: O=C(c1cc(Cc2n[nH]c(=O)c3ccccc23)ccc1F)N1CCN(C(=O)C2CC2)CC1 [Olaparib]
# Summary of the method: as §1
# [23] = compound: CC(C)n1c(=O)n(C)c2cnc3cc(F)c(-c4ccc(OCCCN5CCCCC5)nc4)cc3c21 [AZD1390]; settings: max 0.3 µM
# Summary of the method: as §1
# [24] = compound: COc1cc(Nc2ncc3c(n2)-c2ccc(Cl)cc2C(c2c(F)cccc2OC)=NC3)ccc1C(=O)O [Alisertib]; settings: max 10 µM
# Summary of the method: as §1
# [25] = compound: Cc1cc2ncnn2cc1Nc1ncc2c(n1)n(C1CCOCC1)c(=O)n2C [AZD7648]; settings: max 10 µM
# Summary of the method: as §1
# [26] = compound: C1CN(CCC1(C(=O)N[C@@H](CCO)C2=CC=C(C=C2)Cl)N)C3=NC=NC4=C3C=CN4 [Capivasertib]; settings: max 10 µM
# Summary of the method: as §1
# [27] = compound: COc1nnc2ccc(N3CCC(c4ccc(OCCN5CCN(C)C(=O)[C@H]5C)cc4)CC3)nn12 [AZD5153]; settings: max 1 µM
# Summary of the method: as §1
# [28] = compound: NC1(c2ccc(-c3nc4ccn5c(=O)[nH]nc5c4cc3-c3ccccc3)cc2)CCC1 [MK-2206]; settings: max 10 µM
# Summary of the method: as §1
Cell Line,"IC50, cell viability 72 h [1]","IC50, cell viability 72 h [2]","IC50, cell viability 72 h [3]","IC50, cell viability 72 h [4]","IC50, cell viability 72 h [5]","IC50, cell viability 72 h [6]","IC50, cell viability 72 h [7]","IC50, cell viability 72 h [8]","IC50, cell viability 72 h [9]","IC50, cell viability 72 h [10]","IC50, cell viability 72 h [11]","IC50, cell viability 72 h [12]","IC50, cell viability 72 h [13]","IC50, cell viability 72 h [14]","IC50, cell viability 72 h [15]","IC50, cell viability 72 h [16]","IC50, cell viability 72 h [17]","IC50, cell viability 72 h [18]","IC50, cell viability 72 h [19]","IC50, cell viability 72 h [20]","IC50, cell viability 72 h [21]","IC50, cell viability 72 h ([22]; max 10 µM)","IC50, cell viability 72 h [23]","IC50, cell viability 72 h [24]","IC50, cell viability 72 h [25]","IC50, cell viability 72 h [26]","IC50, cell viability 72 h [27]","IC50, cell viability 72 h [28]","IC50, cell viability 72 h ([22]; max 3 µM)"
KYSE-50 (Esophageal Squamous Cell Carcinoma),> 1000 nM,> 10000 nM,> 10000 nM,8390 nM,> 3000 nM,> 10000 nM,> 1000 nM,> 1000 nM,> 300 nM,> 1000 nM,> 3000 nM,> 10000 nM,263 nM,> 1 nM,8940 nM,1820 nM,> 1000 nM,> 10000 nM,> 1000 nM,> 1000 nM,108 nM,> 10000 nM,> 300 nM,3860 nM,> 10000 nM,> 10000 nM,664 nM,,
NCI-H322M (Lung Adenocarcinoma),> 1000 nM,> 10000 nM,2890 nM,692 nM,> 3000 nM,7360 nM,> 1000 nM,156 nM,98.7 nM,> 1000 nM,> 3000 nM,816 nM,1960 nM,> 1 nM,1130 nM,349 nM,> 1000 nM,> 10000 nM,735 nM,> 1000 nM,10.6 nM,> 10000 nM,> 300 nM,> 10000 nM,> 10000 nM,> 10000 nM,742 nM,,
GOTO (Neuroblastoma),> 1000 nM,1640 nM,> 10000 nM,4550 nM,> 3000 nM,6070 nM,> 1000 nM,> 1000 nM,3.91 nM,332 nM,> 3000 nM,> 10000 nM,> 2000 nM,> 1 nM,592 nM,650 nM,398 nM,7010 nM,193 nM,> 1000 nM,11.8 nM,> 10000 nM,> 300 nM,272 nM,> 10000 nM,> 10000 nM,91.7 nM,,
EW-18 (Ewing's Sarcoma),45.4 nM,1850 nM,> 10000 nM,1240 nM,> 3000 nM,> 10000 nM,> 1000 nM,> 1000 nM,106 nM,131 nM,> 3000 nM,> 10000 nM,> 2000 nM,> 1 nM,3990 nM,359 nM,60 nM,> 10000 nM,> 1000 nM,> 1000 nM,43.2 nM,> 10000 nM,> 300 nM,853 nM,> 10000 nM,2440 nM,376 nM,,
DG-75 (Burkitt's Lymphoma),> 1000 nM,6980 nM,> 10000 nM,> 10000 nM,> 3000 nM,8870 nM,> 1000 nM,> 1000 nM,38.7 nM,> 1000 nM,> 3000 nM,> 10000 nM,> 2000 nM,> 1 nM,1390 nM,424 nM,> 1000 nM,1250 nM,453 nM,> 1000 nM,33.5 nM,> 10000 nM,> 300 nM,> 10000 nM,> 10000 nM,> 10000 nM,24.4 nM,,
SCC-3 (B-Cell Non-Hodgkin's Lymphoma),> 1000 nM,717 nM,> 10000 nM,> 10000 nM,> 3000 nM,> 10000 nM,> 1000 nM,> 1000 nM,6.1 nM,> 1000 nM,> 3000 nM,> 10000 nM,> 2000 nM,> 1 nM,1070 nM,370 nM,> 1000 nM,> 10000 nM,386 nM,> 1000 nM,17.6 nM,> 10000 nM,> 300 nM,721 nM,> 10000 nM,> 10000 nM,67.4 nM,,
BV-173 (Chronic Myelogenous Leukemia),5.26 nM,497 nM,2330 nM,> 10000 nM,> 3000 nM,4020 nM,> 1000 nM,57.2 nM,1.42 nM,6.95 nM,> 3000 nM,> 10000 nM,< 2 nM,> 1 nM,260 nM,294 nM,30.6 nM,3940 nM,46.5 nM,50.4 nM,4.79 nM,3250 nM,> 300 nM,38.5 nM,> 10000 nM,4140 nM,65.1 nM,,
PFSK-1 (Other Solid Carcinomas),> 1000 nM,3070 nM,> 10000 nM,626 nM,> 3000 nM,> 10000 nM,> 1000 nM,> 1000 nM,32.4 nM,> 1000 nM,> 3000 nM,> 10000 nM,> 2000 nM,,8130 nM,1060 nM,114 nM,> 10000 nM,,> 1000 nM,40.4 nM,,> 300 nM,> 10000 nM,> 10000 nM,> 10000 nM,> 1000 nM,2090 nM,> 3000 nM

# From the supplement of paper PMC11061612
